Consider three compounds from patent US20020082273A1, “Agents for use in the treatment of alzheimer's disease” (priority 1998, published 2002).

Values joined by “and” are separate entries in the source; they are usually repeats but may differ in a detail not shown here. Equal values may be shown once. “Also recorded” adds a separate entry of the source.

The nature of one series: TBARS assay of OH. The series is classed as biochemical. Conditions: scavenger 5 mM; Fe^3+ or Cu^2+. As to the method: All data points are means ±SD, n=3.
The Thiobarbituric Acid-Reactive Substance (TBARS) assay for incubation mixtures with Fe^3+ or Cu^2+ was performed in a 96-well microtiter format modified from established protocols (Gutteridge et al. Biochim. Biophys. Acta 759: 38-41 (1983)). Aβ peptide species (10 μM) or Vitamin C (100 μM), were incubated with Fe^3+ or Cu^2+ (1 μM) and deoxyribose (7.5 mM, Sigma) in PBS, pH 7.4. Following incubation (37° C., 1 hour), glacial (17 M) acetic acid and 2-thiobarburic acid (1%, w/v in 0.05 M NaOH, Sigma) were added and heated (100° C., 10 min). The final mixtures were placed on ice for 1-3 minutes before absorbances at 532 nm were measured. The net absorbance change for each sample were obtained by deducting the absorbance from a control sample consisting of identical chemical components except for the Vitamin C or Aβ peptides.

For a further series, the system named is Aβ. Kind of series: Effect of agents on Cu^2+-induced SDS-resistant Aβ polymerization. The series is classed as biochemical, human. As for the experimental part: Cu^2+-induced SDS-resistant oligomerization of Aβ: Aβ (2.5 μM), 150 mM NaCl, 20 mM hepes (pH 6.6, 7.4, 9) with or without ZnCl2 or CuCl2. Following incubation (37° C.), aliquots of each reaction (2 ng peptide) were collected at 0 d, 1 d, 3 d and 5 d and western blotted using anti-Aβ monoclonal antibody 8E10 (FIG. 9). Migration of the molecular size markers are indicated (kDa). […] Cu^2+ (2-30 μM) induced SDS-resistant polymerization of peptide. […] It should be noted that other means of visualizing and/or determining the presence or absence of polymerization other than western blot analysis may be used. Such other means include but are not limited to density sedimentation by centrifugation of the samples.
It is possible that the decreased polymerization may be due to chelation of Cu^2+ by BC, however given the low binding affinity of BC for Cu^2+ compared with Aβ, it seems likely that the chelation of Cu^+ by BC prevents it from inducing SDS-resistant Ad polymerization. Therefore, Aβ may undergo a hydroxyl radical modification that promotes its assembly into SDS-resistant polymers.

The conditions of series [1]: Table 5, NIST database, cited from earlier work.
The conditions of series [2]: Table 5; NIST database; cited from earlier work.
For series [3] the following is noted: Table 5; NIST database; cited from earlier work. The source holds these as a separate data set.
A short description of series [4]: Residual metals in post-centrifugation pellets of brain homogenates (ICP-AES). The conditions noted are these: Table 6. The series is classed as biochemical, human.
Series [5] concerns Aβ deposits of age-matched control brain. Kind of series: Extraction of Aβ from age-matched non-AD control brain tissue. In kind it is biochemical, human. As for the experimental part: (§1) Suitable quantities of gray matter from each subject were minced to serve as pools of homogenous tissue. […] To obtain the soluble fraction, the homogenates were centrifuged at 100,000× g for 30 min (Beckman J180, Beckman instruments, Fullerton, California) and the supernatant collected in 1 ml aliquots and stored on ice or immediately frozen at −70° C. In each experiment, all protein was precipitated from 1 ml of supernatant from each treatment group using 1:5 ice cold 10% trichloracetic acid and pelleted in a bench top microfuge (Heraeus, Osteroder, Germany) at 10,000× g. The remaining pellet was frozen at −70° C.
(§2) Precipitated protein was subjected to SDS polyacrylamide gel electrophoresis (SDS-PAGE) on Novex pre-cast 10-20% Tris-Tricine gels followed by Western transfer onto 0.2 μm nitrocellulose membrane (Biorad, Hercules, Calif.). Aβ was detected using the WO2, G210 or G211 monoclonal antibodies (Ida, N., et al., J. Biol. Chem., 271:22908 (1996)) in combination with HRP-conjugated rabbit anti-mouse IgG (Dako, Denmark), and visualized using chemiluminescence (ECL, Amersham Life Science, Little Chalfont, Buckinghamshire, UK). Each gel included two or more lanes containing known quantities of synthetic Aβ which served as internal reference standards. Blot images were captured by a Relisys scanner with transparency adapter (Teco Information Systems, Taiwan, ROC) and densitometry conducted using the NIH Image 1.6 program (National Institutes for Health, USA. Modified for PC by Scion Corporation, Frederick, Md.), calibrated using a step diffusion chart. For quantitation of Aβ in brain extracts, the internal reference standards of synthetic Aβ were utilized to produce standard curves from which values were interpolated.

The next series concerns the target Aβ1-42 (Homo sapiens, UniProt P05067). Kind of series: Effect of metal chelators on H2O2 production from Aβ1-42. The series is classed as biochemical.
Series [6] has as its system Aβ deposits of AD-affected brain. Nature of the series: Extraction (solubilization) of Aβ from post-mortem AD brain tissue homogenates, western blot densitometry. The series is classed as biochemical, human. As for the experimental part: Identical regions of frontal cortex (0.5 g) from post-mortem brains of individuals with AD, as well as non-AD conditions, were homogenized in TBS, […] ±metal chelators.
0.5 g of prefrontal cortex was dissected and homogenized in PBS ±chelator as indicated. The homogenate was then centrifuged (100,000 g) and the supernatant removed, and a sample taken for western blot assay using anti-Aβ specific antibodies after Tricine PAGE. Densitometry was performed against synthetic peptide standards.
Densitometry of Aβ western blots (FIGS. 19A-19C) was performed for a series of 6 AD brain samples homogenized in the presence of chelators as indicated.
Next the ability of clioquinol to extract Aβ deposits from human brain was examined. […] Fragments of prefrontal cortex from individual post-mortem samples with the histopathological diagnosis of AD were homogenized in PBS, pH 7.4, and then pelleted after centrifugation. The pellets were then washed with agitation twice for 30 minutes, 4° C., with PBS or PBS containing clioquinol (100% =0.8 μM clioquinol). The suspension was then pelleted (10,000 g for 30 minutes) and the supernatant removed (S1) for western blot analysis using Aβ-specific antibodies (illustrated). The pellet was treated a second time in this experiment with agitation and centrifugation, and the second supernatant (S2) analysed.
Soluble Aβ (ng/g tissue) was determined as described. Total Aβ was determined following formic acid extraction of otherwise untreated tissue.
as §1
as §2, with “Aβ was detected using the WO2, G210 or G211 monoclonal antibodies (Ida, N., et al., J. Biol. Chem., 271:22908 (1996)) in combination with HRP-conjugated rabbit anti-mouse IgG (Dako, Denmark), and visualized using chemiluminescence (ECL, Amersham Life Science, Little Chalfont, Buckinghamshire, UK).” left out

Sequence of Aβ1-42 (P05067 672-713 limits assumed): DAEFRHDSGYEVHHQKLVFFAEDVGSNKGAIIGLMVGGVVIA

Take `C[S+](C)[O-]` [DMSO, dimethyl sulfoxide]: the “effect of OH. scavengers on OH. generation by Aβ1-42” value in “TBARS assay of OH.” was “neither were able to quench”.

With `OC[C@@H](O)[C@@H](O)[C@H](O)[C@H](O)CO` [mannitol], the “effect of OH. scavengers on OH. generation by Aβ1-42” value in the series “TBARS assay of OH.” was “neither were able to quench”. In the series on Aβ, the “effect on Cu^2+-induced SDS-resistant Aβ polymerization” value is recorded as “abolishes the polymerization”.

As for bathocuproinedisulfonic acid [BC], the “Stability constant logK10, Cu^2+” value in [1] (Cu^2+) is 6.1. Also, the “Stability constant logK10, Cu^+” value in series [1] (Cu^+) is 19.1. In addition, the “Stability constant logK10, Co” value in series [2] is 4.2. In addition, in [3], the “Stability constant logK10, Zn” value is reported as 4.1. Moreover, in series [4] (chelator 0.001 mM), the “Residual Al in extracted pellet” value worked out at 88 mg/kg, the “Residual Ca in extracted pellet” value turned out to be 1306 mg/kg, the “Residual Cu in extracted pellet” value turned out to be 13 mg/kg and the “Residual Fe in extracted pellet” value was determined as 275 mg/kg. In series [4] (chelator 0.001 mM), the “Residual Mg in extracted pellet” value is 225 mg/kg and the “Residual Zn in extracted pellet” value came to 47 mg/kg. Also, in series [4] (chelator 0.004 mM), the “Residual Al in extracted pellet” value amounted to 33 mg/kg, the “Residual Ca in extracted pellet” value worked out at 489 mg/kg, the “Residual Cu in extracted pellet” value turned out to be 12 mg/kg and the “Residual Fe in extracted pellet” value is listed as 231 mg/kg. In [4] (chelator 0.004 mM), the “Residual Mg in extracted pellet” value is reported as 234 mg/kg and the “Residual Zn in extracted pellet” value is 47 mg/kg. For the same compound, in series [4] (chelator 0.01 mM), the “Residual Al in extracted pellet” value turned out to be 73 mg/kg, the “Residual Ca in extracted pellet” value was 762 mg/kg, the “Residual Cu in extracted pellet” value was 13 mg/kg and the “Residual Fe in extracted pellet” value was 256 mg/kg. For the same compound, in series [4] (chelator 0.01 mM), the “Residual Mg in extracted pellet” value is listed as 223 mg/kg and the “Residual Zn in extracted pellet” value amounted to 49 mg/kg. In [4] (chelator 0.04 mM), the “Residual Al in extracted pellet” value is 38 mg/kg, the “Residual Ca in extracted pellet” value is on record as 753 mg/kg, the “Residual Cu in extracted pellet” value stood at 15 mg/kg and the “Residual Fe in extracted pellet” value is listed as 248 mg/kg. For the same compound, in series [4] (chelator 0.04 mM), the “Residual Mg in extracted pellet” value amounted to 226 mg/kg and the “Residual Zn in extracted pellet” value is on record as 56 mg/kg. Moreover, in series [4] (chelator 2.0 mM), the “Residual Al in extracted pellet” value worked out at 42 mg/kg, the “Residual Ca in extracted pellet” value was determined as 1602 mg/kg, the “Residual Cu in extracted pellet” value is listed as 14 mg/kg and the “Residual Fe in extracted pellet” value amounted to 271 mg/kg. In series [4] (chelator 2.0 mM), the “Residual Mg in extracted pellet” value is reported as 254 mg/kg and the “Residual Zn in extracted pellet” value amounted to 49 mg/kg. Moreover, in [4] (chelator 5.0 mM), the “Residual Al in extracted pellet” value is listed as 38 mg/kg, the “Residual Ca in extracted pellet” value worked out at 912 mg/kg, the “Residual Cu in extracted pellet” value was 15 mg/kg and the “Residual Fe in extracted pellet” value was 249 mg/kg. Besides, in series [4] (chelator 5.0 mM), the “Residual Mg in extracted pellet” value was found to be 238 mg/kg and the “Residual Zn in extracted pellet” value amounted to 53 mg/kg. Besides, in series [5] (AC subject 1, chelator 2 mM), the “Extractable Aβ” value amounted to 0.03 µg/g and the “Extractable Aβ (% of total)” value was “(5) %”. For the same compound, in series [5] (AC subject 2, chelator 2 mM), the “Extractable Aβ” value stood at 0.24 µg/g and the “Extractable Aβ (% of total)” value was “(5.7) %”. Also, in series [5] (AC subject 3, chelator 2 mM), the “Extractable Aβ” value came to 0.29 µg/g and the “Extractable Aβ (% of total)” value is given as “(11.0) %”. For the same compound, in series [5] (AC subject 4, chelator 2 mM), the “Extractable Aβ” value came out at 0.08 µg/g and the “Extractable Aβ (% of total)” value was “(2.6) %”. Also, in [5] (AC subject 5, chelator 2 mM), the “Extractable Aβ” value stood at 0.98 µg/g and the “Extractable Aβ (% of total)” value is reported as “(27.2) %”. In addition, in series [5] (AC subjects 1-5, chelator 2 mM), the “Extractable Aβ (% of total), X (mean)” value is listed as “(10.3) %” and the “Extractable Aβ, X (mean)” value was determined as 0.32 µg/g. Besides, the “X C/PBS (mean chelator / PBS)” value in [5] (age-matched control tissue, chelator 2 mM) is listed as 1.28. Moreover, the “effect on Aβ solubilization compared with AD tissue” value in [5] (non-demented, aged-matched controls) is on record as “much reduced”. Besides, the “effect on H2O2 formation by Aβ1-42” value on Aβ1-42 is “substantially inhibited; also recorded: inhibited H2O2 formation”. Besides, in [6], the “% of total Aβ extracted” value is 3.1% and 7.2% and 6%; the “% of total Aβ extracted, + PBS” value is 2.36% and 5.4% and 3.7%; the “Extractable Aβ (% of total), X (mean)” value is recorded as “(5.4) %”; the “Extractable Aβ, X (mean)” value came to 4.10 µg/g. In series [6], the “X C/PBS (mean chelator / PBS)” value was 3.90, the “concentration response of Aβ solubilization” value is reported as “typical concentration-dependent response with no decline in effectiveness” and the “mean increase of Aβ solubilization over PBS alone” value is given as “around 4 fold”. In addition, in the series on Aβ, the “effect on Cu^2+-induced SDS-resistant Aβ polymerization” value was “marked decrease in polymerization”.
